The source of these data is US4474811A, “Anti-inflammatory ophthalmic solution and process for preparing the same” (Kakenyaku Kako Co., Ltd., priority 1981, dated 1984).

Counter-ions that a name gives are not always drawn. Like-named read-outs stand apart in the source and are kept apart here.

One data set deals with blood-aqueous barrier. Conditions: adding IM instillation vs adding no IM instillation; cited from earlier work.
The conditions of data set [1]: cited from earlier work.
The test system of data set [2] is intraocular pressure elevation and aqueous humor protein increase. Conditions: rabbits; arachidonic acid; suspensions, FP as aqueous solution; Invest. Ophthalmol., 15(10), 841 to 844 (1976); cited from earlier work.
The conditions of data set [3]: oil preparation; cited from earlier work.
Another data set deals with eye ball. The settings on record: oil preparation, topical instillation to the eye ball; cited from earlier work.
Another data set has as its system human eye. The experiment in a line: Irritation of FP to the human eye (general statement). It counts as in vivo. Conditions: concentration of FP above 0.2%. The text has this:
Under the coexistence with β-CD or γ-CD, the solubility of FP in a high concentration can be attained and the decrement of the above-mentioned irritation can be attained even by the use of FP in a high concentration. Moreover, an ophthalmic solution containing FP stable for a long term is obtained by coexisting FP with β-CD or γ-CD.

For data set [4] the following is noted: cited from earlier work. This is another data set of the same source.
Another data set concerns quinine or PGs system. Conditions: compared with known nonsteroidal anti-inflammatory agents; cited from earlier work.
Data set [5] deals with carrageenan-induced edema. Conditions: administered orally, rat; cited from earlier work.
Data set [6] deals with biosynthesis of PGs from arachidonic acid. Conditions: lung homogenate of guinea pig; cited from earlier work.
Another data set has as its system intraocular pressure. Conditions: subconjunctival injection, cited from earlier work.
The test system of data set [7] is eye of the rabbits (pupillary diameter). The experiment in a line: Mydriasis effect of atropine (Test Example 4). It counts as in vivo, rabbit. The settings on record: 1 w/v % atropine sulfate, 40 μl. On the procedure:
Mydriasis induced by atropine instillation was first observed, assuming that a mydriasis treatment is usually performed prior to operation.
The test was performed using 5 rabbits, and a drop (40 μl.) of a 1 w/v % solution of atropine sulfate in physiological salt solution was instilled to the right eye of the rabbits, and the change of status of the eye with lapse of time was observed by the photographic determination of pupillary diameter. The pupillary diameter difference [(the pupillary diameter at each time after instillation)--(the pupillary diameter before instillation)] and rate of mydriasis (%), which was calculated according to the following formula, were determined. [formula] The pupillary diameter difference and the rate of mydriasis in FIG. 5 are the mean values as to 5 rabbits.

As for `COc1ccc2c(c1)c(CC(=O)O)c(C)n2C(=O)c1ccc(Cl)cc1` [indomethacin], in the data set with blood-aqueous barrier, the “inhibition on increase of permeability of blood-aqueous barrier after operation, relative to no IM instillation” value is on record as “about 3 times”. For the same compound, in data set [1] (oral administration in large amounts), the side effect entry is on record as “digestive trouble”. Further, in data set [2], the “inhibitory effect on the intraocular pressure elevation and aqueous humor protein increase” value is given as “particularly strong inhibitory effects”. Moreover, the “stability of the preparation” value in [3] was “poor”. The feeling in use result with eye ball is given as “bad”.

Consider `COc1ccc(-c2[nH]c3ccccc3c2-c2ccc(OC)cc2)cc1` [indoxole], for which, in [2], the “inhibitory effect on the intraocular pressure elevation and aqueous humor protein increase” value is “particularly strong inhibitory effects”.

Consider `CC(C(=O)O)c1ccc(-c2ccccc2)c(F)c1` (centres unmarked) [FP, 2-(2-fluoro-4-biphenylyl)propionic acid], for which the “irritation to the human eye” value in the data set with human eye was “enhanced”. Besides, the solubility result in data set [4] was “limited solubility”. Moreover, the “inhibitory effect on the intraocular pressure elevation and aqueous humor protein increase” value in [2] was “particularly strong inhibitory effects”. Also, the “strength of inhibitory effect” value in the data set on quinine or PGs system is “the strongest among known nonsteroidal anti-inflammatory agents”. Further, in data set [5], the “anti-inflammatory effect relative to aspirin” value was 250 times and the “anti-inflammatory effect relative to indomethacin” value was 14 times. In addition, in data set [6], the “inhibitory effect on biosynthesis of PGs relative to aspirin” value is 2,280 times and the “inhibitory effect on biosynthesis of PGs relative to indomethacin” value is listed as 10 times.

Regarding polyphloretin phosphate, the “effect on intraocular pressure” value in the data set with intraocular pressure (glaucomatocyclitic crisis) is listed as “effect of decreasing the intraocular pressure”. Moreover, the pain result with intraocular pressure is “causes pain to a patient and eye pain or smart feeling is strong”.

Take `CC(=O)Oc1ccccc1C(=O)O` [aspirin]: the side effect entry in data set [1] (in vivo, po) is “digestive trouble”.

As for `CN1[C@@H]2CC[C@H]1C[C@@H](OC(=O)C(CO)c1ccccc1)C2` (some centres unmarked) [atropine, atropine sulfate], the “time to maximum pupillary diameter” value in [7] is recorded as “one”. Moreover, in data set [7] (even after 6 hours from the instillation), the “change in the maximum pupillary diameter” value is “no change”.

As to `Cc1ccc(Cl)c(Nc2ccccc2C(=O)O)c1Cl` [meclofenamic acid], in data set [2], the “inhibitory effect on the intraocular pressure elevation and aqueous humor protein increase” value is reported as “particularly strong inhibitory effects”.
